How the values were obtained:
LPAR1 = target: T1, LPAR1 (Homo sapiens, UniProt Q92633); assay: Cell calcium flux assay (antagonist mode, LPA at EC80, FLIPR); format: cell-based; details: CHO-LPA1 cells, calcium flux, grades; read-out: LPAR1 IC50
T1 construct: expressed in transfected cells; host or cells: CHO (CHO-LPA1 cells)
Method: • 1) The test compound was diluted to a 400X stock solution with DMSO in a 384-well plate. • 2) 1 µl of compound solution from step 1 was transferred into 39 ul of assay buffer to prepare a 10X working solution in a 384-well plate using a Bravo automated liquid handling platform. • 3) CHO-LPA1 cells were cultured in F12 medium (10% FBS). • 4) When cells reached 80% confluence, the cells were dissociated using 0.25% trypsin-EDTA. • 5) Cell density was determined and the cells were diluted to 4x10e5/ml using F12 (10% FBS). • 6) 30 µl of the cell suspension was dispensed into a 384-well plate (corning 3764#) using a multidrop automated dispenser, resulting in 12,000 cells per well. The plate was incubated at 37°C with 5% CO2 for 18-20 hours. • 7) The medium was replaced with 25 uL of serum-free medium and incubated overnight. • 8) 10 ul of 3.5X loading dye was added to each well of the cell plate. The plate was incubated in the dark at 37°C with 5% CO2 for 0.5-1 hours. • 9) After incubation, 5 µl of the 10X working solution from step 2 was transferred to the cell plate. • 10) The cell plate was incubated in the dark at 25°C for 15 minutes, and then the calcium signals were read. • 11) A 5X agonist (LPA) working solution in 1X HBSS+20 mM HEPES+0.1% BSA was prepared in a 384-well assay plate (greiner 784075#), with at least 20 µl per well. The agonist concentration used in this assay was determined based on the dose-response curve from a prior agonist mode experiment, with the EC80 value serving as the final agonist concentration. • 12) Data were read and saved using FLIPR at room temperature with the specified settings. • 13) The signal values were plotted against compound concentrations, and the curve fitting was performed and the IC50 values were calculated using nonlinear regression analysis in GraphPad Prism software.
IC50 values are represented by grades A, B, C, and D, where A represents 0 < IC50 ≤ 10 nM, B represents 10 nM < IC50 ≤ 50 nM, C represents 50 nM < IC50 ≤ 100 nM, and D represents IC50 > 100 nM. Table 1 Antagonistic activity of the compounds of the present invention against LPAR1

[1] = tested on: bleomycin (BLM)-induced idiopathic pulmonary fibrosis (IPF); assay: Mouse model of bleomycin (BLM)-induced idiopathic pulmonary fibrosis (IPF); format: in vivo, C57BL/6j mice
From the text: • 1) Screening and grouping: A total of 48 nine-week-old male C57BL/6j mice (experimental animals) were used in this study. Prior to the start of the experiment, the animals were divided into a sham-operated group (Group 1, 8 mice) and a model group (40 mice) based on their body weights. One week after model establishment, the model group animals were further divided into […] subgroups (Groups 2-6, n = 8 per group) based on their body weights. • 2) Animal model establishment: On day 1 of the experiment, the animals were anesthetised with Zoletil (50 mg/kg) and Xylazine (10 mg/kg). Mice in the model group received an intratracheal (i.t.) injection of bleomycin at a dose of 0.66 mg/kg (1 U/kg) in a volume of 50 µL on day 1. Mice in the sham-operated group (Group 1, […]) received an intratracheal injection of normal saline in a volume of 50 µL. • 3) Mode of administration of test compounds: Starting from day 7 of the experiment, the animals were treated as follows. Group 3: compound 22 was administered by oral gavage at a dose of 1 mg/kg at a volume of 10 mL/kg body weight, twice daily. Group 4: compound 22 was administered by oral gavage at a dose of 3 mg/kg at a volume of 10 mL/kg body weight, twice daily. Group 5: BMS-986278 was administered by oral gavage at a dose of 10 mg/kg at a volume of 10 mL/kg body weight, twice daily. Group 6: nintedanib was administered by oral gavage at a dose of 60 mg/kg at a volume of 10 mL/kg body weight, once daily. Sham-operated group (Group 1) and model group (Group 2): the vehicle was administered by oral gavage at a volume of 10 mL/kg body weight, twice daily. • 4) Test indicators: Lung tissues were collected at the study endpoint for pathological evaluation.

[2] = Pharmacokinetic test in rats; format: in vivo, SD rats; details: for pharmacokinetic characteristics in rats: conclusion in words; for Vd: read-out: Vdss
Method: 3.1. Experimental animals: Male SD rats, about 220 g, 6-8 weeks old, 6 rats/compound, purchased from Chengdu Ddossy Experimental Animals Co., Ltd.
3.2. Experimental design: On the day of the experiment, the SD rats were randomly grouped according to their body weights. The animals were fasted with water available for 12-14 h one day before the administration, and were fed 4 h after the administration. Table 4. Administration information
(§1) Before and after administration, 0.15 mL of blood was taken from the orbit under isoflurane anaesthesia and placed in an EDTAK2 centrifuge tube. The tube was centrifuged at 5000 rpm at 4°C for 10 min, and plasma was collected. Before analysis and detection, all samples were stored at -80°C, and the samples were quantitatively analysed by LC-MS/MS. Table 5. Pharmacokinetic parameters of test compound in plasma of rats

[3] = Pharmacokinetic test in mice; format: in vivo, C57 mice; details: for pharmacokinetic characteristics in mice: conclusion in words; for Vd: read-out: Vdss
Method: 2.1 Experimental animals: Male C57 mice, 20-25 g, 6 mice/compound, purchased from Chengdu Ddossy Experimental Animals Co., Ltd.
2.2 Experimental design: On the day of the experiment, the C57 mice were randomly grouped according to their body weights. The animals were fasted with water available for 12-14 h one day before the administration, and were fed 4 h after the administration. Table 2. Administration information
as §1, with “0.06” for “0.15”, “collected. The blood collection time points for the intravenous administration group and oral gavage administration group were: 0 min, 5 min, 15 min, 30 min, 1 h, 2 h, 4 h, 6 h, 8 h, and 24 h.” for “collected.”, “3.” for “5.”, “compounds” for “compound”, “mice” for “rats”

Caco2 permeability test = format: in vitro ADME; details: human, Caco-2 monolayer, 2 hours at 37°C
Method: In the experiment, a monolayer of Caco-2 cells was used, and incubated in triplicate in a 96-well Transwell plate. A transport buffer solution (HBSS, 10 mM HEPES, pH 7.4 ± 0.05) containing the compound of the present invention (2 µM) or the control compound digoxin (10 µM), nadolol (2 µM) or metoprolol (2 µM) was added to the administration end hole on the apical side or basal side. A DMSO-containing transport buffer solution was added to the corresponding receiving end hole. After incubation for 2 hours at 37°C ± 1°C, the cell plate was removed, and an appropriate amount of samples was taken from both the apical side and basal side and transferred to a new 96-well plate. Subsequently, acetonitrile containing an internal standard was added to precipitate the protein. The samples were analysed using LC MS/MS, and the concentrations of the compound of the present invention and the control compound were determined. Concentration data were used to calculate apparent permeability coefficients for transport from the apical side to the basal side, and from the basal side to the apical side of the cell monolayer, and thus to calculate the efflux ratio. The integrity of the cell monolayer after 2 hours of incubation was evaluated by leakage of Lucifer Yellow.

[4] = 1 mg/kg oral gavage twice daily for 14 consecutive days
[5] = 3 mg/kg oral gavage twice daily for 14 consecutive days
[6] = 3 mg/kg oral gavage twice daily for 14 consecutive days, lung tissue at study endpoint
[7] = rat, iv, rats, i.v. (1 mg/kg), plasma
[8] = rat, po, rats, i.g. (3 mg/kg), plasma
[9] = mouse, iv, mice, i.v. (1 mg/kg), plasma
[10] = mouse, po, mice, i.g. (3 mg/kg), plasma

T1 sequence (Q92633 whole entry): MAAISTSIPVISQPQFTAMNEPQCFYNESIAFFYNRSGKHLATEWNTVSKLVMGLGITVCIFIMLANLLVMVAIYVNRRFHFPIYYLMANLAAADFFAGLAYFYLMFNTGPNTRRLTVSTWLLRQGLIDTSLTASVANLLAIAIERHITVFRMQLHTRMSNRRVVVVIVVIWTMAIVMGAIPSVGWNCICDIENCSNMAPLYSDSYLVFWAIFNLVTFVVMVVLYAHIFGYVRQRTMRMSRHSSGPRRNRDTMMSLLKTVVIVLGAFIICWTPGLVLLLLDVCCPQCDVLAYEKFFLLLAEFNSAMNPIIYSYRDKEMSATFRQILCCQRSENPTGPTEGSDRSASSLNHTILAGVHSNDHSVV

| Structure (SMILES) | IC50 (LPAR1) [µM] | pharmacokinetic characteristics in rats [2] | AUC(0-t) [2, 7] [ng·h/mL] | clearance [2, 7] [mL/min/kg] | Vd [2, 7] [L/kg] | AUC(0-t) [2, 8] [ng·h/mL] | C0 or Cmax ([2]; rats, i.g. (3 mg/kg), plasma) [ng/mL] | C0 or Cmax ([2]; rats, i.v. (1 mg/kg), plasma) [ng/mL] | pharmacokinetic characteristics in mice [3] | C0 or Cmax ([3]; mice, i.g. (3 mg/kg), plasma) [ng/mL] | C0 or Cmax ([3]; mice, i.v. (1 mg/kg), plasma) [ng/mL] | AUC(0-t) [3, 9] [ng·h/mL] | clearance [3, 9] [mL/min/kg] | Vd [3, 9] [L/kg] | AUC(0-t) [3, 10] [ng·h/mL] | other results |
| --- | --- | --- | --- | --- | --- | --- | --- | --- | --- | --- | --- | --- | --- | --- | --- | --- |
| Cc1nc(-c2nnn(C)c2CNC(=O)OC2CC(=C(F)F)C2)ccc1O[C@H]1CCC[C@H](C(=O)O)C1 (stereo partly shown) [Compound 22] | < 0.01 | good pharmacokinetic characteristics | 1790 ± 321 | 9.45 ± 1.7 | 1.21 ± 0.17 | 6710 ± 652 | 1630 ± 162 | 2428 ± 221 | excellent pharmacokinetic characteristics | 1788 ± 180 | 1537 ± 290 | 1570 ± 74 | 10.4 ± 0.55 | 2.77 ± 0.16 | 5610 ± 1410 | Modified Ashcroft score compared with the vehicle-treated model group [1, 4]: significantly reduced; fibrotic area in lung tissues compared with the vehicle-treated model group [1, 4]: significantly reduced; Modified Ashcroft score compared with the vehicle-treated model group [1, 5]: significantly reduced; fibrotic area in lung tissues compared with the vehicle-treated model group [1, 5]: significantly reduced; Modified Ashcroft score [1, 6]: less than 4; fibrotic area [1, 6]: less than 20%; efficacy relative to BMS-986278 (10 mg/kg) and nintedanib (60 mg/kg) ([1]; dose of 1 mg/kg): comparable to that of BMS-986278 (10 mg/kg) and nintedanib (60 mg/kg); efficacy relative to BMS-986278 and nintedanib ([1]; dose of 3 mg/kg): superior efficacy to both BMS-986278 and nintedanib; bioavailability ([2]; rat, plasma, po, rats, i.g. (3 mg/kg)): ≥ 98%; bioavailability ([3]; mouse, plasma, po, mice, i.g. (3 mg/kg)): ≥ 98% |
| C=C1CC(OC(=O)NCc2c(-c3ccc(O[C@H]4CCC[C@H](C(=O)O)C4)c(C)n3)nnn2C)C1 [Compound 26] | < 0.01 | good pharmacokinetic characteristics | 1870 ± 246 | 8.91 ± 1.2 | 1.21 ± 0.5 | 2880 ± 913 | 1144 ± 145 | 2745 ± 354 | excellent pharmacokinetic characteristics | 659 ± 55 | 2268 ± 193 | 1580 ± 50 | 10.3 ± 0.52 | 2.83 ± 0.53 | 2290 ± 102 | efflux ratio at 2 h, 2 µM (Caco2 permeability test; pH 7.4): 6.79; Papp A→B at 2 h, 2 µM (Caco2 permeability test; pH 7.4, read-out: Average apparent permeability coefficient A-B): 4.31 ×10⁻⁶ cm/s; Papp B→A at 2 h, 2 µM (Caco2 permeability test; pH 7.4, read-out: Average apparent permeability coefficient B-A): 29.2 ×10⁻⁶ cm/s |

Source: patent EP4775571A1, “LPAR1 ANTAGONIST AND USE THEREOF” (Haisco Pharmaceutical Group Co., Ltd., priority 2023, dated 2025)
